From patent EP0881896B1, “SKIN TREATMENT WITH SALICYLIC ACID ESTERS AND RETINOIDS” (FD MANAGEMENT, INC., priority 1996, dated 1997)
Like-named read-outs stand apart in the source and are kept apart here.

Tested on: sebocytes
Test: In Vitro sebocyte Lipogenesis Assay (14-C acetate incorporation into lipid)
Assay type: cell-based, Human
Text: Dermatologic disorders, chronoaging and environmental abuse all have some relationship to sebum production. The present example reports an in vitro analysis of sebum suppression by use of a combination of salicylate ester and retinoid.
Human sebaceous glands were isolated from the nose of a person and cultured using submerged tissue culture techniques (Bajor et al, J. Invest, Dermatol, 102:1994. P. 564). These sebocytes accumulate intracellular lipid droplets characteristic of mature human sebum.
Harvested and passaged sebocytes were added to each well of a 48 well tissue culture plate and incubated at 37°C in the presence of 7.5% CO2 for 14 days. The growth medium was changed three times per week. On the day of experimentation, the growth medium was removed and the sebocytes washed three times with phosphate buffered saline (PBS). Fresh PBS in 0.5 ml amount was added to each well and 10 microliters of active agent speculated to inhibit lipogenesis. Triplicate wells were utilized for each sample. […] The cultures were incubated at 37°C/7.5% CO2 for 30 minutes. Radioactive label was prepared by adding 100 ul of 14-C labelled acetic acid (Amersham, sodium salt, specific activity of 56 mCi/mmol) to 10 mL of 50 mM sodium acetate buffer. Then 50 ul was added to each well containing the sebocytes and active agents. The cultures were returned to the incubator for 4 hours. Thereafter the treatments and label were removed and the sebocytes rinsed three times with fresh PBS. Sebocytes were harvested and 10 microliters removed and set aside for protein assessment. The remaining samples containing the 14-C label were extracted and the label counted using a Beckman scintillation counter. Triplicates were performed for each sample.
For each 48 well tissue culture plate, 16 samples could be analyzed. Of these, 1 sample was reserved for PBS, 1 sample for DMSO, and 1 sample for phenol red leaving 13 remaining samples. When TDS (tridecyl salicylate) was analyzed in the presence of other compounds, an additional set of wells was used for measuring the effects of TDS alone. When multiple 48 well plates were used, TDS was included in each plate.

[1] = combination with tridecyl salicylate, conclusion from Tables VIII-X

`CCCCC/C=C\C/C=C\CCCCCCCC(=O)OC/C=C(C)/C=C/C=C(C)/C=C/C1=C(C)CCCC1(C)C` [Retinyl Linoleate, retinyl linoleate] gave an inhibition at 10 µM (Homo sapiens, Table IX, Retinyl Linoleate 10 uM alone, read-out: Retinyl Linoleate % Actual Reduction (SD)) of -15%, an inhibition at 50 µM (Homo sapiens, Table IX, Retinyl Linoleate 50 uM alone, read-out: Retinyl Linoleate % Actual Reduction (SD)) of -7.4% and an inhibition at 100 µM (Homo sapiens, Table IX, Retinyl Linoleate 100 uM alone, read-out: Retinyl Linoleate % Actual Reduction (SD)) of 1.9%. For the same compound, the inhibition at 0.1 µM (Homo sapiens, Table VIII, Retinyl Linoleate 100 nM alone, read-out: Retinyl Linoleate % Actual Reduction (SD)) was 4.4%, the inhibition at 1 µM (Homo sapiens, Table VIII, Retinyl Linoleate 1 uM alone, read-out: Retinyl Linoleate % Actual Reduction (SD)) was 6% and the inhibition at 10 µM (Homo sapiens, Table VIII, Retinyl Linoleate 10 uM alone, read-out: Retinyl Linoleate % Actual Reduction (SD)) was 13.8%. For the same compound, the inhibition at 100 µM (Homo sapiens, Table VIII, Retinyl Linoleate 100 uM alone, read-out: Retinyl Linoleate % Actual Reduction (SD)) was 20.3% and the “activity with tridecyl salicylate (synergistic or additive)” value (“activity with tridecyl salicylate” for short) [1] was “synergistic activity”.
With `CCCCCCCCCCCCCOC(=O)c1ccccc1O` [TDS, tridecyl salicylate] the inhibition at 50 µM (Homo sapiens, Table IX, 50 uM TDS alone, read-out: Reduction) was 17.9%, the inhibition at 100 µM (Homo sapiens, Table IX, 100 uM TDS alone, read-out: Reduction) was 30.8% and the inhibition at 10 µM (Homo sapiens, Table VIII, 10 uM TDS alone, read-out: Reduction) was 19.7%. It also gave an inhibition at 100 µM (Homo sapiens, Table X, 100 uM TDS alone, read-out: Reduction) of 38.7%.
In the case of `CC1=C(/C=C/C(C)=C/C=C/C(C)=C/CO)C(C)(C)CCC1` [Retinol], the “activity with tridecyl salicylate” value (similar trials with retinol instead of retinyl linoleate, retinol at very low levels) was “synergistic”.
For `CCCCCCCCCCCCCCCC(=O)OC/C=C(C)/C=C/C=C(C)/C=C/C1=C(C)CCCC1(C)C` [Retinyl Palmitate, retinyl palmitate, reference compound], the inhibition at 10 µM (Homo sapiens, Table X, Retinyl Palmitate 10 uM alone, read-out: Retinyl Palmitate % Actual Reduction (SD)) was 12.2%, the inhibition at 100 µM (Homo sapiens, Table X, Retinyl Palmitate 100 uM alone, read-out: Retinyl Palmitate % Actual Reduction (SD)) was 12% and the “activity with tridecyl salicylate” value [1] was “only an additive effect”.
